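Assay format: 96-well plates, 48-hour exposure. TGI: total growth inhibition.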
Columns and labels:
Test in all cases: NCI anticancer screen, dose series, 48 h
786-0 renal = tested on: 786-0 renal
DMS 114 small cell lung = tested on: DMS 114 small cell lung
LOX IMVI melanoma = tested on: LOX IMVI melanoma
OVCAR-4 ovarian = tested on: OVCAR-4 ovarian
HOP-92 NSCLC = tested on: HOP-92 NSCLC
UO-31 renal = tested on: UO-31 renal
HOP-62 NSCLC = tested on: HOP-62 NSCLC
SF-268 CNS = tested on: SF-268 CNS
LXFL 529 NSCLC = tested on: LXFL 529 NSCLC
SK-MEL-2 melanoma = tested on: SK-MEL-2 melanoma
MOLT-4 leukemia = tested on: MOLT-4 leukemia
SK-MEL-5 melanoma = tested on: SK-MEL-5 melanoma
RPMI-8226 leukemia = tested on: RPMI-8226 leukemia
SW-620 colon = tested on: SW-620 colon
SNB-75 CNS = tested on: SNB-75 CNS
KM20L2 colon = tested on: KM20L2 colon
A498 renal = tested on: A498 renal
SK-MEL-28 melanoma = tested on: SK-MEL-28 melanoma
UACC-257 melanoma = tested on: UACC-257 melanoma
SF-539 CNS = tested on: SF-539 CNS
HCT-15 colon = tested on: HCT-15 colon
CAKI-1 renal = tested on: CAKI-1 renal
K-562 leukemia = tested on: K-562 leukemia
SNB-78 CNS = tested on: SNB-78 CNS
M19-MEL melanoma = tested on: M19-MEL melanoma
NCI-H23 lung = tested on: NCI-H23 lung
DMS 273 small cell lung = tested on: DMS 273 small cell lung
SF-295 CNS = tested on: SF-295 CNS
OVCAR-3 ovarian = tested on: OVCAR-3 ovarian
TK-10 renal = tested on: TK-10 renal
EKVX NSCLC = tested on: EKVX NSCLC
HL-60(TB) leukemia = tested on: HL-60(TB) leukemia
IGROV1 ovarian = tested on: IGROV1 ovarian
XF 498 CNS = tested on: XF 498 CNS
SN12C renal = tested on: SN12C renal
KM12 colon = tested on: KM12 colon
DLD-1 colon = tested on: DLD-1 colon
CCRF-CEM leukemia = tested on: CCRF-CEM leukemia
UACC-62 melanoma = tested on: UACC-62 melanoma
RXF 393 renal = tested on: RXF 393 renal
SK-OV-3 ovarian = tested on: SK-OV-3 ovarian
SR leukemia = tested on: SR leukemia
COLO 205 colon = tested on: COLO 205 colon
A549 NSCLC = tested on: A549 NSCLC
M14 melanoma = tested on: M14 melanoma
HCT-116 colon = tested on: HCT-116 colon
U251 CNS = tested on: U251 CNS
NCI-H460 lung = tested on: NCI-H460 lung
ACHN renal = tested on: ACHN renal
HCC-2998 colon = tested on: HCC-2998 colon
SNB-19 CNS = tested on: SNB-19 CNS
OVCAR-8 ovarian = tested on: OVCAR-8 ovarian
HT29 colon = tested on: HT29 colon
MALME-3M melanoma = tested on: MALME-3M melanoma
NCI-H226 lung = tested on: NCI-H226 lung
NCI-H522 lung = tested on: NCI-H522 lung

Measured: TGI

c1ccc(SCCCC(Sc2ccccc2)Sc2ccccc2)cc1
> 100 µM: 786-0 renal | DMS 114 small cell lung | LOX IMVI melanoma | OVCAR-4 ovarian | HOP-92 NSCLC | UO-31 renal | HOP-62 NSCLC | SF-268 CNS | LXFL 529 NSCLC | SK-MEL-2 melanoma | MOLT-4 leukemia | SK-MEL-5 melanoma | RPMI-8226 leukemia | SW-620 colon | SNB-75 CNS | KM20L2 colon | A498 renal | SK-MEL-28 melanoma | UACC-257 melanoma | SF-539 CNS | HCT-15 colon | CAKI-1 renal | K-562 leukemia | SNB-78 CNS | M19-MEL melanoma | NCI-H23 lung | DMS 273 small cell lung | SF-295 CNS | OVCAR-3 ovarian | TK-10 renal | EKVX NSCLC | HL-60(TB) leukemia | IGROV1 ovarian | XF 498 CNS | SN12C renal | KM12 colon | DLD-1 colon | CCRF-CEM leukemia | UACC-62 melanoma | RXF 393 renal | SK-OV-3 ovarian | SR leukemia | COLO 205 colon | A549 NSCLC | M14 melanoma | HCT-116 colon | U251 CNS | NCI-H460 lung | ACHN renal | HCC-2998 colon | SNB-19 CNS | OVCAR-8 ovarian

CN1CC2(CCCCC2)C(O)C12C=CCCC2 (configuration not stated)
> 100 µM: 786-0 renal | DMS 114 small cell lung | LOX IMVI melanoma | HT29 colon | UO-31 renal | HOP-62 NSCLC | SF-268 CNS | LXFL 529 NSCLC | SK-MEL-2 melanoma | MOLT-4 leukemia | SK-MEL-5 melanoma | RPMI-8226 leukemia | SW-620 colon | SNB-75 CNS | KM20L2 colon | A498 renal | SK-MEL-28 melanoma | UACC-257 melanoma | SF-539 CNS | HCT-15 colon | CAKI-1 renal | MALME-3M melanoma | K-562 leukemia | SNB-78 CNS | M19-MEL melanoma | NCI-H23 lung | DMS 273 small cell lung | SF-295 CNS | OVCAR-3 ovarian | TK-10 renal | EKVX NSCLC | HL-60(TB) leukemia | IGROV1 ovarian | XF 498 CNS | SN12C renal | KM12 colon | DLD-1 colon | CCRF-CEM leukemia | UACC-62 melanoma | RXF 393 renal | SK-OV-3 ovarian | COLO 205 colon | A549 NSCLC | M14 melanoma | U251 CNS | NCI-H226 lung | HCC-2998 colon | NCI-H522 lung | SNB-19 CNS | OVCAR-8 ovarian

— PubChem BioAssay (NCI)
